From patent US10220033B2, “Substituted benzoxazepine for cancer therapy” (University of Cape Town, priority 2014, dated 2019)
Like-named read-outs stand apart in the source and are kept apart here.

Key:
[1] = test system: CaSki cervical cancer cell line; test: MTT assay for cell viability, IC50 determination; type: cell-based
Procedure: (§1) Cells were plated in 96-well plates and treated with varying concentrations of a test compound for 48 hours, after which MTT dye, 3-(4,5-dimethylthiazol-2-yl)-2,5-diphenyltetrazolium bromide (Sigma), was added, and crystals solubilised 4 hours later using Solubilisation Reagent (10% SLS in 0.01 M HCl). Absorbencies were measured at 595 nm the following day using a BioTek microplate spectrophotometer (Winooski, Vt., USA) and IC50 curves were generated using GraphPad Prism.

[2] = test system: WHCO5 oesophageal cancer cell line; test: MTT assay for cell viability, IC50 determination; type: cell-based, human; conditions: Homo sapiens
Procedure: as §1

[3] = test system: HeLa cervical cancer cell line; test: MTT assay for cell viability, IC50 determination; type: cell-based; conditions: for IC50: Homo sapiens, HeLa
Procedure: as §1

[4] = test system: KYSE180 oesophageal cancer cell line; test: MTT assay for cell viability, IC50 determination; type: cell-based; conditions: Homo sapiens, KYSE-180, 48 hours
Procedure: as §1

[5] = test system: DMB normal skin fibroblasts (non-cancer); test: MTT assay for cell viability, IC50 determination; type: cell-based; conditions: Skin fibroblast
Procedure: as §1

[6] = test system: KYSE150 oesophageal cancer cell line; test: MTT assay for cell viability, IC50 determination; type: cell-based; conditions: Homo sapiens, KYSE-150
Procedure: as §1

[7] = test system: MCF7 breast cancer cell line; test: MTT assay for cell viability, IC50 determination; type: cell-based; conditions: Homo sapiens
Procedure: as §1

[8] = test system: MDA-MB-231 breast cancer cell line; test: MTT assay for cell viability, IC50 determination; type: cell-based; conditions: Homo sapiens
Procedure: as §1

[9] = MTT assay for cell viability, IC50 determination; type: cell-based; conditions: Homo sapiens, MCF-12A, MCF12A
Procedure: as §1

[10] = test system: WI38 non-cancer cell line; test: MTT assay for cell viability, IC50 determination; type: cell-based; conditions: Homo sapiens, WI-38
Procedure: as §1

[11] = test system: SVWI38 transformed cell line; test: MTT assay for cell viability, IC50 determination; type: cell-based
Procedure: as §1

[12] = test system: EPC2 (EPC2-hTERT normal immortalised oesophageal epithelial cells); test: MTT assay for cell viability, IC50 determination; type: cell-based; conditions: Homo sapiens, compound in salt form
Procedure: as §1

[13] = test system: NFAT transcriptional activity in NFAT-transfected HeLa cells; test: NFAT luciferase reporter assay; type: cell-based; conditions: stimulated with TPA and ionomycin (FIGS. 16-20)
Procedure: To assay for NFAT luciferase activity, 30 000 HeLa cells were plated per well in 24-well plates, and transfected with 50 ng GFP-NFAT plasmid (Addgene plasmid #24219, gift of Jerry Crabtree (Beals C R, Clipstone N A, Ho S N, Crabtree G R. Nuclear localization of NF-ATc by a calcineurin-dependent, cyclosporin-sensitive intramolecular interaction. Genes Dev 1997 Apr. 1; 11(7):824-34)), 50 ng NFAT-luciferase (Addgene plasmid #10959, gift of Toren Finkel (Ichida M, Finkel T. Ras regulates NFAT3 activity in cardiac myocytes. J Biol Chem 2001 Feb. 2; 276(5):3524-30)), and 5 ng pRL-TK, using 0.4 μl Genecellin™ Transfection Reagent (Celtic Molecular Diagnostics, South Africa). The NFAT-luciferase reporter plasmid contains three tandem repeats of a 30 bp fragment of the IL-2 promoter known to bind NFAT. The following day cells were treated with 10 or 15 μM Compound A and after an overnight incubation, stimulated with 100 nM TPA (Sigma) and 1.3 μM Ionomycin (Santa Cruz Biotechnology, Santa Cruz, Calif., USA) for 5 hours, following which luciferase activity was measured.
An assay for nuclear NFAT following ionomycin and Compound A treatment was carried out, using an NFAT-luciferase reporter that is activated by nuclear NFAT. The phorbol ester TPA was used to co-stimulate NFAT, as it has been shown previously that TPA and ionomycin elicit synergistic stimulation of NFAT luciferase activity (Northrop J P, Ullman K S, Crabtree G R. Characterization of the nuclear and cytoplasmic components of the lymphoid-specific nuclear factor of activated T cells (NF-AT) complex. J Biol Chem 1993 Feb. 5; 268(4):2917-23).

cancer cell lines = test: MTT cell viability, summary statements over panels of cancer cell lines; type: cell-based; conditions: CaSki, HeLa, WHCO5, KYSE150, MCF12A, MCF7, MDA-MB-231, SVW138 (Table 4); read-out: IC50 values
Procedure: as §1

[14] = Homo sapiens, Ca-Ski, 48 h, MTT, read-out: IC50
[15] = 48 h, 48 hours, MTT, read-out: IC50
[16] = compound in salt form, read-out: IC50
[17] = Homo sapiens, Ca-Ski, compound in salt form, read-out: IC50

Cc1ccc2c(c1)c1c(n2C[C@@H](O)CNC[C@@H]2CCCO2)CCCC1 [XIV, (2S)-1-(6-methyl-1,2,3,4-tetrahydrocarbazol-9-yl)-3-[[(2S)-tetrahydrofuran-2-yl]methylamino]propan-2-ol]
IC50 [1, 14]: 31.7 µM

COc1ccc(C)cc1NC(=O)[C@@H](NCc1nc2ccccc2n1C)c1ccccc1 [VI, (2S)-N-(2-methoxy-5-methyl-phenyl)-2-[(1-methylbenzimidazol-2-yl)methylamino]-2-phenyl-acetamide]
IC50 [1, 14]: 19.1 µM

CCN(CC)CCCn1c(N)c(-c2nc3ccccc3[nH]2)c2nc3ccccc3nc21 [Compound B]
IC50 ([2]; 48 h, MTT): 5.7 µM
IC50 [3, 15]: 6.36 µM
IC50 [1, 14]: 5.59 µM
IC50 [4]: 6.03 µM

CC(C)CCn1c(N)c(-c2nc3ccccc3[nH]2)c2nc3ccccc3nc21 [Compound G]
IC50 ([2]; 48 h, MTT): 6.14 µM
IC50 [3, 15]: 6.38 µM
IC50 [1, 14]: 6.17 µM
IC50 [4]: 5.51 µM

OCCCNCc1cc2cc3c(cc2nc1N1CCN(c2cccc(Cl)c2)CC1)OCO3 [XV, 3-[[6-[4-(3-chlorophenyl)piperazin-1-yl]-[1,3]dioxolo[4,5-g]quinolin-7-yl]methylamino]propan-1-ol]
IC50 [1, 14]: 37.7 µM

Cn1c(-c2c(N)n(CCCN3CCOCC3)c3nc4ccccc4nc23)nc2ccccc21 [Compound I]
IC50 ([2]; 48 h, MTT): 19.6 µM
IC50 [3, 15]: 15.4 µM
IC50 ([1]; 48 hours, MTT): Does not converge.
IC50 [4]: 22 µM

c1ccc2nccnc2c1 [quinoxaline, reference compound]
cell-killing effect ([3]; HeLa cells, concentration range of up to 6.5 mM (FIG. 3A)): No cell-killing effect was observed

Cc1csc2nc(CNCc3cc4cc5c(cc4n(CCN4CCCCC4)c3=O)CCC5)cn12 [Compound XI, 3-[[(3-methylimidazo[2,1-b]thiazol-6-yl)methylamino]methyl]-1-[2-(1-piperidyl)ethyl]-7,8-dihydro-6H-cyclopenta[g]quinolin-2-one]
IC50 ([2]; compound in salt form): 17 µM
IC50 ([5]; DMB, compound in salt form): 31.2 µM
IC50 ([6]; Kyse150, compound in salt form): 40.1 µM
IC50 ([7]; compound in salt form): 95 µM
IC50 ([8]; compound in salt form): 32.7 µM
IC50 [3, 16]: 33.1 µM
IC50 ([9]; compound in salt form): 61.8 µM
IC50 ([10]; WI38, compound in salt form): 35 µM
IC50 [1, 14]: 26.9 µM
IC50 [1, 17]: 26.9 µM
IC50 ([11]; SVWI38, compound in salt form): 41.1 µM

CC(C)Cc1ccc(CNCc2cccnc2N2CCCN(C)CC2)s1 [Compound XII, 1-(5-isobutyl-2-thienyl)-N-[[2-(4-methyl-1,4-diazepan-1-yl)-3-pyridyl]methyl]methanamine]
IC50 ([2]; compound in salt form): 20.3 µM
IC50 ([5]; DMB, compound in salt form): 57 µM
IC50 ([6]; Kyse150, compound in salt form): 25.5 µM
IC50 ([7]; compound in salt form): 44.9 µM
IC50 ([8]; compound in salt form): 30 µM
IC50 [3, 16]: 23.1 µM
IC50 ([9]; compound in salt form): 34.1 µM
IC50 [12]: 41.6 µM
IC50 ([10]; WI38, compound in salt form): 33.8 µM
IC50 [1, 14]: 27.4 µM
IC50 [1, 17]: 27.4 µM
IC50 ([11]; SVWI38, compound in salt form): 31.3 µM

CN1CCc2cc(CNC3CCN(c4ccc(C(=O)NC5CCCC5)cc4)CC3)ccc21 [XVI, N-cyclopentyl-4-[4-[(1-methylindolin-5-yl)methylamino]-1-piperidyl]benzamide]
IC50 [1, 14]: 46.8 µM

CCCn1c(N)c(-c2nc3ccccc3n2C)c2nc3ccccc3nc21 [Compound J]
IC50 ([2]; 48 h, MTT): 11.8 µM
IC50 [3, 15]: 22.2 µM
IC50 [1, 14]: 38.4 µM
IC50 [4]: 33.1 µM

Cc1ccc(OC[C@@H](O)CN2CCN(CCO)CC2)cc1C [VII, (2S)-1-(3,4-dimethylphenoxy)-3-[4-(2-hydroxyethyl)piperazin-1-yl]propan-2-ol]
IC50 [1, 14]: 22.2 µM

CCCCn1c(N)c(-c2nc3ccccc3[nH]2)c2nc3ccccc3nc21 [Compound E]
IC50 ([2]; 48 h, MTT): 5.94 µM
IC50 [3, 15]: 8.29 µM
IC50 [1, 14]: 14.3 µM
IC50 [4]: 8.79 µM

Ivermectin [reference compound]
NFAT activation (NFAT-luciferase reporter) [13]: significantly diminished

Cc1ccc(OC[C@@H](O)CNCc2ccc3c(c2)OCO3)cc1C [Compound XIII, 1-(benzo[1,3]dioxol-5-ylmethylamino)-3-(3,4-dimethylphenoxy)-propan-2-ol]
IC50 ([2]; compound in salt form): 40.1 µM
IC50 ([5]; DMB, compound in salt form): 93 µM
IC50 ([6]; Kyse150, compound in salt form): 98.4 µM
IC50 ([7]; compound in salt form): 44.5 µM
IC50 ([8]; compound in salt form): 33 µM
IC50 [3, 16]: 53.6 µM
IC50 ([9]; compound in salt form): 49.3 µM
IC50 [12]: 34.6 µM
IC50 ([10]; WI38, compound in salt form): 36.2 µM
IC50 [1, 14]: 39.5 µM
IC50 [1, 17]: 39.5 µM
IC50 ([11]; SVWI38, compound in salt form): 42.1 µM

CCn1c(N)c(-c2nc3ccccc3[nH]2)c2nc3ccccc3nc21 [Compound K]
IC50 ([2]; 48 h, MTT): 6.79 µM
IC50 [3, 15]: 4.16 µM
IC50 [1, 14]: 6.62 µM
IC50 [4]: 7.23 µM

c1ccc2[nH]cnc2c1 [Benzimidazole, benzimidazole, reference compound]
IC50 ([3]; HeLa cells (FIG. 3B), read-out: IC50 concentration (cell-killing effect)): 2080 µM

Cc1csc2nc(CNCc3cc4cc5c(cc4n(CC4CCCCC4)c3=O)CCC5)cn12 [Compound X, 1-(cyclohexylmethyl)-3-[[(3-methylimidazo[2,1-b]thiazol-6-yl)methylamino]methyl]-7,8-dihydro-6H-cyclopenta[g]quinolin-2-one]
IC50 ([2]; compound in salt form): 20 µM
IC50 ([5]; DMB, compound in salt form): 69.3 µM
IC50 ([6]; Kyse150, compound in salt form): 32.2 µM
IC50 ([7]; compound in salt form): 23.7 µM
IC50 ([8]; compound in salt form): 22.1 µM
IC50 [3, 16]: 21.5 µM
IC50 ([9]; compound in salt form): 11.7 µM
IC50 [12]: 9.37 µM
IC50 ([10]; WI38, compound in salt form): 39.4 µM
IC50 [1, 14]: 26.7 µM
IC50 [1, 17]: 26.7 µM
IC50 ([11]; SVWI38, compound in salt form): 33.5 µM

Nc1c(-c2nc3ccccc3[nH]2)c2nc3ccccc3nc2n1CCCn1ccnc1 [Compound C]
IC50 ([2]; 48 h, MTT): 8.32 µM
IC50 [3, 15]: 7.19 µM
IC50 [1, 14]: 9.49 µM
IC50 [4]: 8.46 µM

CCCn1c(N)c(-c2nc3ccccc3[nH]2)c2nc3ccccc3nc21 [Compound D]
IC50 ([2]; 48 h, MTT): 12.2 µM
IC50 [3, 15]: 8.38 µM
IC50 [1, 14]: 12.2 µM
IC50 [4]: 14.8 µM

CC(C)Cn1c(N)c(-c2nc3ccccc3[nH]2)c2nc3ccccc3nc21 [Compound F]
IC50 ([2]; 48 h, MTT): 6.59 µM
IC50 [3, 15]: 6.77 µM
IC50 [1, 14]: 7.55 µM
IC50 [4]: 5.35 µM

Clc1ccccc1COc1nc2cc3c(cc2cc1CNCc1cn2c(n1)SCC2)CCC3 [Compound IV, ({2-[(2-chlorophenyl)methoxy]-6H,7H,8H-cyclopenta[g]quinolin-3-yl}methyl)({2H,3H-imidazo[2,1-b][1,3]thiazol-6-ylmethyl})amine]
IC50 ([2]; 48 h, MTT): 17.9 µM
IC50 (cancer cell lines): 8 to 18 µM
IC50 ([5]; DMB non-cancer, 48 hours, MTT): 8.27 µM
IC50 ([6]; KYSE150, 48 hours, MTT): 11.2 µM
IC50 ([7]; 48 hours, MTT): 14 µM
IC50 ([8]; 48 hours, MTT): 8.01 µM
IC50 [3, 15]: 8.62 µM
IC50 ([9]; 48 hours, MTT): 11.4 µM
IC50 ([10]; WI38 non-cancer, 48 hours, MTT): 25.1 µM
IC50 [1, 14]: 8.69 µM
IC50 ([11]; SVWI38 transformed, 48 hours, MTT): 12.9 µM

CCOC(=O)c1cc2c(=O)n3cc(C)ccc3nc2[n+](CCCN2CCOCC2)c1N [V, ethyl 2-imino-8-methyl-1-[3-(4-morpholinyl)propyl]-5-oxo-1,5-dihydro-2H-dipyrido[1,2-a:2′,3′-d]pyrimidine-3-carboxylate]
IC50 [1, 14]: 16.4 µM

Nc1c(-c2nc3ccccc3[nH]2)c2nc3ccccc3nc2n1CCCO [Compound H]
IC50 ([2]; 48 h, MTT): 6.3 µM
IC50 [3, 15]: 4.04 µM
IC50 [1, 14]: 10 µM
IC50 [4]: 1.18 µM

COc1cc2ncnc(Nc3cccc(Cl)c3)c2cc1OC [AG 1478, reference compound]
NFAT activation (NFAT-luciferase reporter) [13]: no change

Cc1ccc2cc(CNCCCN3C[C@@H]4C=C[C@H]3C4)c(N3CCC(O)CC3)nc2c1 (stereo in doubt) [VIII, 1-[3-[[3-[(1S,4R)-5-azabicyclo[2.2.1]hept-2-en-5-yl]propylamino]methyl]-7-methyl-2-quinolyl]piperidin4-ol]
IC50 [1, 14]: 24.4 µM
